Assays:
[1] = in vivo; settings: rat, brain and plasma
[2] = Blood clearance in rat; assay type: ADME, organism-based; settings: whole blood
[3] = Half life in rat; assay type: ADME, organism-based; settings: in vivo
[4] = Intrinsic clearance in human liver microsomes; assay type: ADME, Microsome
[5] = Lipophilicity, log D of the compound at pH 7.4; assay type: physicochemical; settings: buffer
[6] = Bioavailability in rat at 1 mg/kg, po and iv; assay type: ADME, organism-based; settings: in vivo

Compound	microsomal CLint [4] [µL/min/mg]	logD [5]	other results
CO[C@@H]1COCC[C@@H]1N[C@@H]1CC[C@@](C(=O)N2CCN(c3cc(C(F)(F)F)ccn3)CC2)(C(C)C)C1	9.3		Kp [1]: 3; clearance [2]: 33.8 mL/min/kg; half-life [3]: 3.9 h
CO[C@@H]1COCC[C@@H]1N(C)[C@@H]1CC[C@@](C(=O)N2CCN(c3cc(C(F)(F)F)ccn3)CC2)(C(C)C)C1	58		
CO[C@@H]1COCC[C@@H]1N[C@@H]1CC[C@@](C(=O)N2CCN(c3ccnc(C(F)(F)F)c3)CC2)(C(C)C)C1	< 7	0.7	
CO[C@@H]1COCC[C@@H]1N[C@@H]1CC[C@@](C(=O)N2CCN(c3cc(C(F)(F)F)cnn3)CC2)(C(C)C)C1	< 7	0.5	bioavailability [6]: 50%
CC(C)[C@]1(C(=O)N2CCN(c3cc(C(F)(F)F)ccn3)CC2)CC[C@@H](N2CCC3COCCC32)C1 (stereo in doubt; 22)	< 7		
CC(C)[C@]1(C(=O)N2CCN(c3cc(C(F)(F)F)cnn3)CC2)CC[C@@H](NC2C3CCCC2COC3)C1 (stereo in doubt; 27)	58		

From ChEMBL document CHEMBL1782039, “Discovery of ((1S,3R)-1-isopropyl-3-((3S,4S)-3-methoxy-tetrahydro-2H-pyran-4-ylamino)cyclopentyl)(4-(5-(trifluoromethyl)pyridazin-3-yl)piperazin-1-yl)methanone, PF-4254196, a CCR2 antagonist with an improved cardiovascular profile” (Bioorg Med Chem Lett, 2011)
